# In publication PMC6766655, “AhR–ROR-γt complex is a therapeutic target for MAP4K3/GLK^highIL-17A^high subpopulation of systemic lupus erythematosus” (The FASEB Journal, 2019):
# Assays:
# [1] = system: Th17 differentiation; assay: In vitro Th17 differentiation of splenic T cells (flow cytometry of IL-17A-producing CD4+ T cells); assay type: cell-based, murine; settings: 1 or 5 μM during differentiation, 3 days
# Protocol: Supplementary Figure 5. Verteporfin inhibits both Th17 differentiation and IL-17A production from in vitro differentiated Th17 cells. (A) Flow cytometry of IL-17A-producing CD4^+ T cells. Splenic T cells were co-treated with verteporfin (C1) (1 or 5 μM) during Th17 differentiation in vitro (for 3 days). (B) Flow cytometry of IL-17A-producing CD4^+ T cells. Murine in vitro differentiated Th17 cells were stimulated with PMA plus ionomycin and co-treated with verteporfin (C1) (1 or 5 μM) for 30 min. Data shown are representatives of two independent experiments.
# [2] = system: GLK-induced NF-κB luciferase activity of CHO-GLK-Luc cells; assay: Cell-based NF-κB luciferase reporter assay in GLK-transfected CHO-K1 cells; design: species or system Chinese hamster; settings: stable GLK-transfected CHO-K1 cells; Fig. 3A
# Protocol: Cell-based high‐throughput screening was conducted against a representative library of 100,000 molecules at ∼10 μM. The Chinese hamster ovary CHO-K1 (ATCC, CCL-61) cells expressing GLK and NF-κB luciferase (Luc) reporter were used. The reaction volume was 5 μl (500 cells) per well in 1536‐well plates. There was no positive control. This high‐throughput screening campaign was successful, with a determined Z' factor of 0.57 ∼ 0.60. […] At the end, 1392 compounds were identified for high inhibition (>80%) of the GLK-induced NF-κB luciferase activity of CHO‐GLK‐Luc cells. These 1392 compounds were further screened for the inhibition of GLK kinase activity by in vitro kinase assays using the kinase-dead PKC-θ protein as the substrate. From the screening, 2 potential small-molecule GLK inhibitors [half maximal inhibitory concentration (IC50) < 10 μM] were identified.
# Figure 3 Verteporfin (C1) blocks the AhR–ROR-γt complex in human autoimmune T cells. A) Luciferase activity of NF-κB–driven reporter assays in stable GLK-transfected CHO-K1 cells that were treated with or without C1 under the indicated concentration. The fold changes are presented relative to the value of vector control. […] D) Quantification of the PLA signals shown in panel C. *P < 0.05, ***P < 0.001 (2-tailed Student’s t test).
# [3] = system: murine primary T cells; assay: Cell death of murine primary T cells (Fixable Viability Stain 780, flow cytometry); assay type: cell-based; settings: 1 or 5 μM for 3 d, anti-CD3/CD28 stimulated
# Protocol: Supplementary Figure 4. […] Murine primary T cells were stimulated with anti-CD3/CD28 and co-treated with verteporfin (C1) (1 or 5 μM) for 3 days. Dead T cells were labeled with Fixable Viability Stain 780 (FVS 780; BD Biosciences) and then determined by flow cytometry. Data shown are representatives of four independent experiments.
# [4] = system: Lck-GLK Tg mice; assay: Serum cytokines and autoantibodies (ELISA) in Lck-GLK Tg mice; assay type: in vivo; settings: 0.4 μg/g body weight i.v. every 3 d
# From the text: Lck-GLK Tg mice with C57BL/6J backgrounds and GLK-deficient mice with C57BL/6J backgrounds were generated as previously described ([18], [21]). Their respective wild-type littermates with C57BL/6J backgrounds were used as controls. Mice used in this report were either 20-wk-old sex-matched littermates or 8–10-wk-old sex-matched [all female for EAE, all male for collagen-induced arthritis (CIA)] C57BL/6J wild-type mice. All mice used in this study were maintained in temperature-controlled and pathogen-free cages. All animal experiments were performed in the Association for Assessment and Accreditation of Laboratory Animal Care–animal housing facilities at National Health Research Institutes. All mice were used according to the protocols and guidelines approved by the Institutional Animal Care and Use Committee of National Health Research Institutes.
# Lck-GLK Tg mice were administered verteporfin (0.4 μg/g body weight) by intravenous injection every 3 d for a period of 30 d (Fig. 4A). […] Moreover, overproduction of autoantibodies (anti-nuclear antibody, anti-dsDNA antibody, and rheumatoid factor) in Lck-GLK Tg mice was also abolished by the verteporfin treatment for 30 d (Fig. 4C). […] To further verify that verteporfin is also effective in IL-17A–mediated animal models, we treated wild-type mice with verteporfin during induction of EAE and CIA.
# Figure 4 Verteporfin (C1) suppresses IL-17 production and autoimmune responses in mice. A–C) Effect of C1 administration (0.4 μg/g body weight every 3 d for a period of 30 d) on serum IL-17A and autoantibodies in 20-wk-old Lck-GLK Tg mice. B) ELISA of serum IL-17A, IL-6, TNF-α, IFN-γ, and IL-17F in Lck-GLK Tg mice treated with C1 or PBS for 16 d. C) ELISA of serum autoantibodies in Lck-GLK Tg mice treated with C1 or PBS for 30 d. Means ± SEM are shown; n = 4/group. D) EAE induction in wild-type C57BL/6J mice treated with PBS or C1 (0.4 μg/g body weight every 3 d). Clinical scores are presented on a scale of 1–5. PBS group, n = 10; C1 group, n = 7. E) ELISA of IL-17A in the sera from MOG-immunized mice at day 16. […]
# [5] = target: T1, KHS (MAP4K5) (Homo sapiens, UniProt Q9Y4K4); assay: In vitro kinase assay, myelin basic protein as substrate (ADP-Glo); assay type: biochemical; settings: recombinant kinase domain
# T1 construct: Recombinant proteins of kinase domains of various MAP4Ks were used; purchased Promega
# T1 sequence (Q9Y4K4 20-277 limits assumed): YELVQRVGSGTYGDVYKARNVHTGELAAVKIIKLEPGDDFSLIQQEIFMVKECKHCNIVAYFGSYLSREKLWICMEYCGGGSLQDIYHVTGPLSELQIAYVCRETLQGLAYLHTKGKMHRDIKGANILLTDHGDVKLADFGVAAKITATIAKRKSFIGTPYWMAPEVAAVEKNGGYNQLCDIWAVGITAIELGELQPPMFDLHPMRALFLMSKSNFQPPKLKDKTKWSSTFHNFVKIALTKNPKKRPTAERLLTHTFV
substance,measurement,setting,value
verteporfin,Th17 differentiation,[1],inhibited
same,Th17 differentiation,[1]; listed as Verteporfin,inhibits
same,GLK signaling in cell lines (NF-κB-driven luciferase activity),[2],efficiently inhibited
same,cell death of murine primary T cells,[3],did not enhance cell death
same,cell death of murine primary T cells,[3]; listed as Verteporfin,does not induce cell death
same,"serum levels of IL-6, TNF-α, IFN-γ, and IL-17F",[4]; 16 d,not significantly changed
same,serum IL-17A,"[4]; 16 d, vs PBS",significantly decreased
same,"overproduction of autoantibodies (anti-nuclear antibody, anti-dsDNA antibody, rheumatoid factor)",[4]; 30 d,abolished
same,IC50,[5],43.9 nM
